Reference: patent US9604964B2, “Dihydropyrazole GPR40 modulators” (BRISTOL-MYERS SQUIBB COMPANY, priority 2012, dated 2017)

Tests used:
human GPR40 [1] = target: T1, human GPR40 (Homo sapiens, UniProt O14842); test: GPR40 IP-One HTRF assay in HEK293/GPR40 inducible cell lines; assay type: cell-based; parameters: expressed in transfected cells; conditions: HEK293 cells, tetracycline-inducible human GPR40, IP-One HTRF; read-out: hGPR40 IP1 EC50
Procedure: GPR40 IP-One HTRF Assays in HEK293/GPR40 Inducible Cell Lines
Human, mouse and rat GPR40-mediated intracellular IP-One HTRF assays were established using human embryonic kidney HEK293 cells stably transfected with a tetracycline-inducible human, mouse or rat GPR40 receptor. Cells were routinely cultured in growth medium containing DMEM (Gibco Cat. #:12430-047), 10% qualified FBS (Sigma, Cat. #: F2442), 200 μg/mL hygromycin (Invitrogen, Cat. #: 16087-010) and 1.5 μg/mL blasticidin (Invitrogen, Cat. # R210-01). About 12-15 million cells were passed into a T175 tissue culture flask (BD Falcon 353112) with growth medium and incubated for 16-18 hours (overnight) at 370 C with 5% CO2. The next day, assay medium was exchanged with growth medium containing 1000 ng/mL of tetracycline (Fluka Analytical, Cat. #87128) to induce GPR40 expression for 18-24 hours at […] incubator with 5% CO2. After induction, the cells were washed with PBS (Gibco, Cat. #14190-036) and detached with Cell Stripper (Cellgro, Cat. #25-056-CL). 10-20 mL growth medium were added to the flask and cells were collected in 50 mL tubes (Falcon, Cat.#:352098) and spun at 1000 RPM for 5 minutes. Culture medium was aspirated and the cells were resuspended in 10 mL of 1×IP-One Stimulation Buffer from the Cisbio IP-One kit (Cisbio, Cat. #62IPAPEJ). The cells were diluted to 1.4×10^6 cells/mL in Stimulation Buffer.
Test compounds were 3-fold, 11-point serially diluted in DMSO in a REMP assay plate (Matrix Cat. #: 4307) by BioCel (Agilent). The compounds were transferred into an Echo plate (LABCYTE, Cat. #: LP-0200) and 20 nL of diluted compounds were transferred to an assay plate (proxi-plate from Perkin Elmer, Cat. #6008289) by Echo acoustic nano dispenser (LABCYTE, model ECHO550). 14 μL of the diluted cells were then added to the assay plate by Thermo (SN 836 330) Combi Drop and incubated at room temperature for 45 minutes. Then 3 μL of IP1 coupled to dye D2 from the Cisbio IP-One kit were added to the assay plate followed by 3 μL of Lumi4TM-Tb cryptate K from the kit. The plate was further incubated at room for 1 hour before reading on the Envision (Perkin Elmer Model2101) with an HTRF protocol. Activation data for the test compound over a range of concentrations was plotted as percentage activation of the test compound (100%=maximum response). After correcting for background [(sample read-mean of low control)/(mean of high control−mean of low control)] (low control is DMSO without any compound), EC50 values were determined. The EC50 is defined as the concentration of test compound which produces 50% of the maximal response and was quantified using the 4 parameter logistic equation to fit the data.

human GPR40 [2] = target: T1, human GPR40; test: FDSS-based intracellular calcium assay (Human GPR40 in vitro assay); assay type: cell-based; parameters: 3xFLAG; expressed in transfected cells; conditions: intracellular Ca2+ response, cells expressing GPR40; read-out: hGPR40 EC50
Procedure: FDSS-based Intracellular Calcium Assay
Compounds are dissolved in DMSO and diluted to desired concentrations with assay buffer and added to the cells as 3× solution (20 μL per well). Run fluorescence/luminescence reader FDSS (Hamamatsu) to read intracellular Ca^2+ response.

T1 sequence (O14842 whole entry): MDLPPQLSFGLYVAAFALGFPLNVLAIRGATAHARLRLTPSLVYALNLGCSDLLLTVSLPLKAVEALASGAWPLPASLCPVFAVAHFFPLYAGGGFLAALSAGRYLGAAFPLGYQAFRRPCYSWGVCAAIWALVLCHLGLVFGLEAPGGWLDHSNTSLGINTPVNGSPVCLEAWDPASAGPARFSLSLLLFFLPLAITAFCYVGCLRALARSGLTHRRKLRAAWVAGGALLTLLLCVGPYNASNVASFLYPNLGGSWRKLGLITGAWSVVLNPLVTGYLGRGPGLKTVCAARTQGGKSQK

| SMILES | EC50 (human GPR40 [1]) [nM] | EC50 (human GPR40 [2]) [nM] |
| --- | --- | --- |
| CCOc1ccc(F)c(N2CCC(Oc3ccc(N4N=C(C(F)(F)F)[C@@H](C)[C@@H]4CC(=O)O)cc3)C(Cc3ccccc3)C2)c1 (single isomer, unassigned) [Example 28 (Isomer 2)] | 230 | 1320 |
| CCOc1ccc(F)c(N2CCC(Oc3ccc(N4N=C(C(F)(F)F)[C@@H](C)[C@@H]4CC(=O)O)cc3)C(OC)C2)c1 (single isomer, unassigned) [Example 31 (Isomer 1)] | 13 | 473 |
| COc1cc(N2CCC(Oc3ccc(N4N=C(C(F)(F)F)[C@@H](C)[C@@H]4CC(=O)O)cn3)C(C)C2)c(Cl)cn1 (single isomer, unassigned) [Example 103 Isomer 2] | 43 | 96 |
| CCOc1ccc(F)c(N2CC[C@@H](Oc3ccc(N4N=C(c5ccc(S(C)(=O)=O)cc5)[C@@H](C)[C@@H]4CC(=O)O)cc3)[C@H](C)C2)c1 [Example 98, 2-((4S,5S)-1-(4-(((3R,4R)-1-(5-ethoxy-2-fluorophenyl)-3-methylpiperidin-4-yl)oxy)phenyl)-4-methyl-3-(4-(methylsulfonyl)phenyl)-4,5-dihydro-1H-pyrazol-5-yl)acetic acid] | 25 | 83 |
| COc1cccc(N2CCC(Cc3ccc(N4N=C(c5ccc(F)cc5)[C@@H](C)[C@@H]4CC(=O)O)cc3)CC2)c1 [Example 101, 2-((4S,5S)-3-(4-fluorophenyl)-1-(4-((1-(3-methoxyphenyl)piperidin-4-yl)methyl)phenyl)-4-methyl-4,5-dihydro-1H-pyrazol-5-yl)acetic acid] | 40 | 281 |
| C[C@@H]1C(C(F)(F)F)=NN(c2ccc(OC3CCN(c4cc(O)ccc4F)CC3)cc2)[C@H]1CC(=O)O [Example 102, 2-((4S,5S)-1-(4-((1-(2-fluoro-5-hydroxyphenyl)piperidin-4-yl)oxy)phenyl)-4-methyl-3-(trifluoromethyl)-4,5-dihydro-1H-pyrazol-5-yl)acetic acid] | 131 |  |
| COc1cc(N2CC[C@@H](Oc3ccc(N4N=C(C(F)(F)F)[C@@H](C)[C@@H]4CC(=O)O)cc3)[C@H](CC#N)C2)c(Cl)cn1 [Example B2, 2-((4S,5S)-1-(4-(((3R,4R)-1-(5-chloro-2-methoxypyridin-4-yl)-3-(cyanomethyl)piperidin-4-yl)oxy)phenyl)-4-methyl-3-(trifluoromethyl)-4,5-dihydro-1H-pyrazol-5-yl)acetic acid] | 362 | 586 |
